Like-named read-outs stand apart in the source and are kept apart here.
Key:
hKIF18A (1-374) = hKIF18A (1-374) (Homo sapiens (Human), UniProt Q8NI77); test: Inhibition of KIF18A microtubule-dependent ATPase activity (ADP-Glo)
[1] = biological target: KIF18a-Microtubule Complex (Homo sapiens (Human), UniProt Q8NI77); test: Binding kinetics to KIF18a-microtubule complex (global progress curve analysis); conditions: for kon (on-rate from binding kinetics assay): global progress curve analysis; for Ki: read-out: KI (determined from binding kinetic assay koff/kon), koff/kon; for koff: read-out: koff (off-rate from binding kinetics assay)
Method in brief: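 kon and koff determined by global progress curve analysis, with ADP formation measured by ADP-Glo. Time- and dose-dependent progress curves were globally fitted to a Michaelis-Menten model with one-step slow-binding inhibition.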

[2] = test system: OVCAR-3 tumor cells implanted in Balb/C nude mice; test: In vivo activity, OVCAR-3 tumor xenograft, tumor growth inhibition; set-up: species or system mouse; conditions: OVCAR3 model
Method: (§1) Assessment of In Vivo Activity
(§2) OVCAR-3 (ATCC) tumor cells were maintained in vitro in RPMI-1640 medium supplemented with 20% fetal bovine serum, 0.01 mg/mL bovine insulin and 1% Anti-Anti at 37° C. in an atmosphere of 5% CO2 in air. HCC15 (DSMZ) tumor cells were maintained in vitro in RPMI 1640 medium supplemented with 10% fetal bovine serum and 1% Anti-Anti at 37° C. in an atmosphere of 5% CO2 in air.
(§3) The tumor cells were sub-cultured twice weekly. The cells growing in an exponential growth phase were harvested and counted for tumor inoculation.
(§4) Tumor cells (10×10^6) in 0.2 mL of PBS mixed with Matrigel (50:50) were inoculated subcutaneously on the right flank of each mouse. When the average tumor volume reached 110-175 mm^3, animals were randomized into groups of 10 and treatment started. OVCAR-3 cells were implanted in Balb/C nude mice, and HCC15 cell were implanted in SCID Beige mice.
(§5) Compounds were dosed once or twice a day (12 h) orally. Tumor Growth Inhibition (TGI) was calculated using the formula: TGI (%)=[1−(TN−T0)/(VN−V0)]×100; TN is the average tumor volume of a treatment group at the indicated timepoint, T0 is the average tumor volume of the treatment group on treatment day 0, VN is the average tumor volume of the vehicle control group at the indicated timepoint, and V0 is the average tumor volume of the vehicle group on treatment day 0. P value was calculated based on tumor size by One-Way ANOVA with GraphPad Prism 9.4.0 compared with the vehicle group, respectively. **** indicates p<0.0001.
(§6) The tumor volume of vehicle- and compound-treated mice as a function of time after start of treatment and the results of treatments with selected compounds on SCID Beige mice or nude mice implanted with HCC15 or OVCAR-3 are shown in FIGS. 1A-1E.

NIH:OVCAR-3 cells = test: Cell viability of KIF18a-sensitive cell lines, NIH:OVCAR-3 (Cell Titre-Glo, 7 days); assay type: cell-based; conditions: Homo sapiens, OVCAR-3, 168 h; NIH-OVCAR3 cells, 7 days, Cell Titre-Glo; read-out: NIH-OVCAR3 IC50
Method in brief: (§7)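 Seeding was 24 h before dosing: HCC15 at 600 cells/well in RPMI-1640/10% FBS, OVCAR-3 at 1000 cells/well in RPMI-1640/20% FBS plus insulin, JIMT-1 at 1000 cells/well in DMEM/10% FBS. After serially diluted compound, cells grew 7 days at 37° C. Cell Titre-Glo luminescence was converted to ATP; IC50 came from a four-parameter fit.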

[3] = test system: HCC15 tumor cells implanted in SCID Beige mice; test: In vivo activity, HCC15 tumor xenograft, tumor growth inhibition; set-up: species or system mouse; conditions: HCC15 model
Method: as §1, §2, §3, §4, §5, §6

HCC15 cells = test: Cell viability of KIF18a-sensitive cell lines, HCC15 (Cell Titre-Glo, 7 days); assay type: cell-based; conditions: HCC15, 168 h; HCC-15 cells, 7 days, Cell Titre-Glo; read-out: HCC-15 IC50
Method in brief: as §7

JIMT-1 cells = test: Cell viability of KIF18a-sensitive cell lines, JIMT-1 (Cell Titre-Glo, 7 days); assay type: cell-based; conditions: Homo sapiens, 168 h; JIMT-1 cells, 7 days, Cell Titre-Glo; read-out: JIMT-1 IC50
Method in brief: as §7

[4] = KIF18A microtubule-dependent ATPase activity, biochemical assay

Sequence of hKIF18A (1-374) (Q8NI77 whole entry, looked up): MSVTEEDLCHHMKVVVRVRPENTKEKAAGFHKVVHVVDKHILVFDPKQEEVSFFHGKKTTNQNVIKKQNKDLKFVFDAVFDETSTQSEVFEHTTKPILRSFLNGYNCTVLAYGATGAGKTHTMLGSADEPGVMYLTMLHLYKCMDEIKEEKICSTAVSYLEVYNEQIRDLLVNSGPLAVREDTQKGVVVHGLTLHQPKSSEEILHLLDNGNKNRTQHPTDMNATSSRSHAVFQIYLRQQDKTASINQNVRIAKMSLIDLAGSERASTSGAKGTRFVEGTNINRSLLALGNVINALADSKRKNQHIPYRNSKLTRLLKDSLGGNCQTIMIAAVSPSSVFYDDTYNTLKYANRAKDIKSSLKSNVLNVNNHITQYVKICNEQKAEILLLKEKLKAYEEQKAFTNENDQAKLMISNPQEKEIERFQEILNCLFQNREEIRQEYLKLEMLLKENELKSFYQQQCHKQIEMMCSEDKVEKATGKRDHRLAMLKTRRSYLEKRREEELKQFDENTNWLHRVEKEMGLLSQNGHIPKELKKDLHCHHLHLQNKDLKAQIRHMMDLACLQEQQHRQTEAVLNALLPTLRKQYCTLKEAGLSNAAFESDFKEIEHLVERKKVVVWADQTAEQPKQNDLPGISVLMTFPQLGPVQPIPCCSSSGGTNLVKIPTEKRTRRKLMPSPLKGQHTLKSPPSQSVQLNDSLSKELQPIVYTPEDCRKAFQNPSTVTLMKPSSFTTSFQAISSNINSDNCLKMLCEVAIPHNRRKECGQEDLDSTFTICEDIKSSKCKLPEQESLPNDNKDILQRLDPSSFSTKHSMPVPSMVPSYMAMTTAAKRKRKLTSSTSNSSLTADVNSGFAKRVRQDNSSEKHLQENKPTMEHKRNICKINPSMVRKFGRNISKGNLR
Sequence of hKIF18A (1-374) (Q2XVP4 whole entry partner, looked up): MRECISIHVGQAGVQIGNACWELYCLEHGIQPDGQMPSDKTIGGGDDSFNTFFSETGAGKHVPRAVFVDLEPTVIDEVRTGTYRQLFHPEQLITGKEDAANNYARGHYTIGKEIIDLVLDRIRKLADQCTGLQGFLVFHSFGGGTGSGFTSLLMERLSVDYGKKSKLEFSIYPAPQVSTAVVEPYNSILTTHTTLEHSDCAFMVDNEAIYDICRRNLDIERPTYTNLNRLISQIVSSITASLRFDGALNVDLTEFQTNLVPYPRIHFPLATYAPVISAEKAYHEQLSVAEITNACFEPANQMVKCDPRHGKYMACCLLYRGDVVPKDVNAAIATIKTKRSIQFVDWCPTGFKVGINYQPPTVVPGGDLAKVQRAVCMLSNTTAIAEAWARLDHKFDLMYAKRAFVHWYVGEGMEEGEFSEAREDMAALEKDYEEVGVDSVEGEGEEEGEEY
Sequence of hKIF18A (1-374) (P02554 whole entry partner, looked up): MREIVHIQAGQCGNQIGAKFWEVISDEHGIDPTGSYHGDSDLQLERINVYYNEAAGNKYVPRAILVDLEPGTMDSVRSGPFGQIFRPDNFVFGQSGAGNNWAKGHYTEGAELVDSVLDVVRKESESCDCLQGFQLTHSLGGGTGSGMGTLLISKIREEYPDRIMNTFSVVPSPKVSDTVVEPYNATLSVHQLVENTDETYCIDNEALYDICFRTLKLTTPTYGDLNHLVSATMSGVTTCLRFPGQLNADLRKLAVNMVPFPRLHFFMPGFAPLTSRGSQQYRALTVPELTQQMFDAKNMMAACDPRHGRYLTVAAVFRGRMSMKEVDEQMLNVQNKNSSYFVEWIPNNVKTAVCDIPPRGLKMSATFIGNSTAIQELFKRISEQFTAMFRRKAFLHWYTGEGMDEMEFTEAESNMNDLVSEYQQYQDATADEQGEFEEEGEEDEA
Sequence of KIF18a-Microtubule Complex (Q8NI77 whole entry, looked up): as the sequence (Q8NI77 whole entry, looked up) above
Sequence of KIF18a-Microtubule Complex (Q2XVP4 whole entry partner, looked up): as the sequence (Q2XVP4 whole entry partner, looked up) above
Sequence of KIF18a-Microtubule Complex (P02554 whole entry partner, looked up): as the sequence (P02554 whole entry partner, looked up) above

Row | Compound | IC50 (hKIF18A (1-374); [4]) [nM] | kon (on-rate from binding kinetics assay) [1] [M⁻¹ s⁻¹] | disc. t1/2 (dissociation half-life ln(2)/koff) [1] [h] | Ki [1] [nM] | koff [1] [s⁻¹] | TGI ([2]; 10 mg/kg BID PO) [%] | TGI ([2]; 30 mg/kg BID PO, subfigure 1D) [%] | TGI ([2]; 30 mg/kg BID PO, subfigure printed 1R) [%] | TGI ([2]; 30 mg/kg QD PO) [%] | TGI ([2]; 60 mg/kg BID PO) [%] | TGI ([2]; 60 mg/kg QD PO) [%] | IC50 (NIH:OVCAR-3 cells) [nM] | TGI ([3]; 10 mg/kg BID PO) [%] | TGI ([3]; 30 mg/kg BID PO) [%] | TGI ([3]; 60 mg/kg BID PO) [%] | IC50 (HCC15 cells) [nM] | IC50 (JIMT-1 cells) [nM] | IC50 (hKIF18A (1-374)) [nM] | TGI ([2]; 10 mg/kg QD PO) [%]
1 | CCS(=O)(=O)Nc1ccc2c(c1)C1(CCC3(CC3)CC1)CN2C(=O)c1cccc(S(=O)(=O)NC(C)(C)C)c1 [Compound 134, N-(tert-butyl)-3-(5″-(ethylsulfonamido)dispiro[cyclopropane-1,1′-cyclohexane-4′,3″-indoline]-1″-carbonyl)benzenesulfonamide] | 16 | 15000 | 40 | 0.34 | 5e-06 | 60 ± 17 | 111 ± 1 | 110 ± 1 | 104 ± 7 | 112 ± 1 | 109 ± 2 | 5.1 | 61 ± 10 | 89 ± 7 | 94 ± 5 | 5.1 | 4 | – | –
2 | CC(C)(C)NS(=O)(=O)c1cccc(C(=O)N2CC3(CCC4(CC4)CC3)c3cc(NS(C)(=O)=O)ccc32)c1 [Compound 22, N-(tert-butyl)-3-(5″- (methylsulfonamido)dispiro[cyclo-propane-1,1′-cyclohexane-4′,3″-indoline]-1″-carbonyl)benzenesulfonamide] | 11 | 10600 | 38 | 0.55 | 5e-06 | – | – | – | 72 ± 17 | – | 82 ± 10 | 9.7 | 30 ± 15 | 72 ± 6 | 82 ± 9 | 11 | 7.8 | 9.4 | 24 ± 26
